We go through 14 molecules from patent US20090036388A1, “Compounds” (priority 2007, published 2009).

Experiment [1] has as its system Plasmodium falciparum strain 3D7A. Nature of the experiment: [3H] hypoxanthine incorporation IC50 assay, P. falciparum 3D7A. Type of experiment: cell-based. The settings on record: 48 hours incubation; for IC50: Plasmodium falciparum. The procedure:
(§1) Plasmodium falciparum strains 3D7A and W2.
(§2) The culture medium comprised RPMI 1640 with 25 mM HEPES, sodium bicarbonate and glutamine (GIBCO™ cat. ref.: 52400), supplemented with 10% of pooled human sera AB (Bioreclamation HMSRM-AB)) and HT supplement (0.15 mM hypoxanthine and 24 μM thymidine), (GIBCO™ cat. ref.: 41065). Human sera were decomplemented 30 min. at 56° C., aliquoted and stored frozen at −20° C. until use in this culture medium.
(§3) Red blood cells AB—stock suspensions were prepared from whole blood bags coming from incomplete blood donation, provided by the Spanish Red Cross (<25 days after sampling). This “whole blood” was aliquoted and stored at 4° C.
(§4) To prepare red blood cells for the assay, the whole blood was centrifuged and washed 3 times with RPMI without serum. The upper phase, containing white blood cells was removed. The washed red blood cells were kept as a 50% suspension in complete medium. The prepared cells were stored at 4° C. and were employed in the assay at any time up to 4 days after preparation.
(§5) Test compounds were dissolved at 2 mg/ml in 100% DMSO on the day of the assay. If necessary, complete dissolution was achieved by gentle heating (the mixture was heated at a temperature <37° C.) and sonication (sonication bath).
(§6) For IC50 determinations, 10 serial 2-fold dilutions were prepared in complete medium in the presence of a constant amount of DMSO. Any obvious signs of insolubility of the stock solutions in 100% DMSO or precipitation when these solutions were diluted in assay media, were recorded.
(§7) Plasmodium falciparum strains were maintained in complete medium at an hematocrit of 5% in continuous culture using a method adapted from Trager and Jensen (1, 2).
(§8) The parasitemia was calculated by counting the percentage of parasitized erythrocytes by optical microscopy. Thin films of blood were made every day from each culture flask, fixed with methanol and stained for 10 min. in Giemsa (Merck, cat. ref.: 1.09204) at 10% in buffered water pH 7.2. The glass slides were observed and counted with an optical microscope (Nikon, Eclipse E200) equipped with a 100× immersion oil objective.
(§9) The culture was maintained at an hematocrit of 5%, with a daily change of medium and was diluted when parasitemia had reached about 5%.
(§10) [^3H] Hypoxanthine incorporation assay was conducted using a method adapted from Desjardins et al. (3). The assays were performed in 96 wells flat bottom microplates.
(§11) 1. Serial dilutions of the test compounds (50 μl of a 5× solution/well) were deposited in duplicate. Compounds of this invention (Table 1) were tested in this assay. Chloroquine and Azithromycin were used as control compounds for each assay.
(§12) 3. [^3H]-Hypoxanthine (Amersham Biosciences, cat. ref.: TRK74) was added extemporaneously to the inoculum suspension at a concentration of 1 μCi/ml (equating to […]). 200 μl of the resulting suspension was distributed into each well (other than the control well H12 described below) leading to a final volume of 250 μl per well, at 1% of hematocrit and 0.4% of parasitemia/well.
(§13) 4. In each plate, 2 columns were reserved for control wells: • Column 11: Positive control wells: PRBCs with 0.2% DMSO—(i) to determine DMSO solvent effect on parasite growth (at a final concentration of 0.2%) and (ii) to compare with cultures treated with test compounds. • Column 12 (comprising wells A12-H12): • A12-D12—Background value wells: Uninfected RBCs—blank control to obtain the background reading from RBCs without parasites.
(§14) E12-G12—Solvent effect wells: PRBCs without DMSO—to determine DMSO solvent effect on PRBCs by comparing these wells with column 11 wells.
(§15) H12—Non-radioactive well: PRBCs with cold hypoxanthine—(i) to carry out a thin blood film to determine parasitemia value after incubation by microscopy and (ii) to ensure that the parasites have grown properly during the assay. […]

Experiment [2] deals with Plasmodium falciparum strain W2. Nature of the experiment: [3H] hypoxanthine incorporation IC50 assay, P. falciparum W2. Type of experiment: cell-based. Particulars: P. falciparum W2, 48 hours incubation. The procedure:
as §1, §2, §3, §4, §5, §6, §7, §8, §9, §10, §11, §12, §13, §14, §15

In another experiment the test system is Plasmodium cynomolgi. The settings on record: rhesus monkey; cited from earlier work.
The test system of the next experiment is Plasmodium falciparum. Particulars: non-immune patients, as compared to controls; cited from earlier work.
A further experiment relates to Plasmodium vivax. The settings on record: non-immune patients, as compared to controls; cited from earlier work.
In experiment [3] the test system is Plasmodium yoelii nigeriensis. The settings on record: cited from earlier work.
In another experiment the test system is Plasmodium berghei. Particulars: cited from earlier work.

≈ marks a conversion by molar mass, not a printed value.

With `CC[C@H]1OC(=O)[C@H](C)[C@@H](O[C@H]2C[C@@](C)(OC)[C@@H](O)[C@H](C)O2)[C@H](C)[C@@H](O[C@@H]2O[C@H](C)C[C@H](N(C)C)[C@H]2OCCCNc2ccnc3cc(Cl)ccc23)[C@](C)(O)C[C@@H](C)CN(C)[C@H](C)[C@@H](O)[C@]1(C)O` [Example 3, 2′-O-{3-[(7-Chloro-4-quinolinyl)amino]propyl}-9-deoxo-9a-methyl-9a-aza-9a-homoerythromycin A], the IC50 in experiment [1] and in experiment [2] was at most 0.1 µg/mL throughout.
As to `CC[C@H]1OC(=O)[C@H](C)[C@@H](O)[C@H](C)[C@@H](O[C@@H]2O[C@H](C)C[C@H](N(C)C)[C@H]2OCCCNc2ccnc3cc(Cl)ccc23)[C@](C)(O)C[C@@H](C)CN(C)[C@H](C)[C@@H](OC(C)=O)[C@]1(C)O` [Example 4, 11-O-Acetyl-2′-O-{3-[(7-Chloro-4-quinolinyl)amino]propyl}-3-O-decladinosyl-9-deoxo-9a-methyl-9a-aza-9a-homoerythromycin A], the IC50 in experiment [1] and in experiment [2] was at most 0.1 µg/mL each time.
In the case of `CC[C@H]1OC(=O)[C@H](C)[C@@H](O)[C@H](C)[C@@H](O[C@@H]2O[C@H](C)C[C@H](N(C)C)[C@H]2OCCCNC(=O)CCCNc2ccnc3cc(Cl)ccc23)[C@](C)(O)C[C@@H](C)CN(C)[C@H](C)[C@@H](O)[C@]1(C)O` [Example 2, 2′-O-[3-({4-[(7-chloro-4-quinolinyl)amino]butanoyl}amino)propyl]-3-O-decladinosyl-9-deoxo-9a-methyl-9a-aza-9a-homoerythromycin A], the IC50 in experiment [1] and in experiment [2] was 0.1 to 0.2 µg/mL (≈ 0.112 to 0.224 µM) throughout.
Consider `CC[C@H]1OC(=O)[C@H](C)[C@@H](O)[C@H](C)[C@@H](O[C@@H]2O[C@H](C)C[C@H](N(C)C)[C@H]2OCCCNC(=O)CNc2ccnc3ccccc23)[C@](C)(O)C[C@@H](C)CN(C)[C@H](C)[C@@H](O)[C@]1(C)O` [Example 10, 2′-O-[3-({2-[(4-quinolinyl)amino]ethanoyl}amino)propyl]-3-O-decladinosyl-9-deoxo-9a-methyl-9a-aza-9a-homoerythromycin A], for which the figures for the IC50 in experiment [1] and in experiment [2] were 1 to 2.5 µg/mL (≈ 1.2 to 3 µM) and 0.2 to 1 µg/mL (≈ 0.24 to 1.2 µM), respectively.
As to `CC[C@H]1OC(=O)[C@H](C)[C@@H](O[C@H]2C[C@@](C)(OC)[C@@H](O)[C@H](C)O2)[C@H](C)[C@@H](O[C@@H]2O[C@H](C)C[C@H](N(C)C)[C@H]2O)[C@](C)(O)C[C@@H](C)CN(C)[C@H](C)[C@@H](O)[C@]1(C)O` [azithromycin], in experiment [1], the “IC50 3D7A” value is “H, >H”. In addition, in the experiment with Plasmodium cynomolgi, the “efficacy in monkey model” value is reported as “active”. Moreover, in the experiment on Plasmodium falciparum, the “prophylactic efficacy for Plasmodium falciparum” value is on record as 71.6%. For the same molecule, the half-maximal inhibitory concentration (IC50) in experiment [2] is 2.5 to 3 µg/mL (≈ 3.34 to 4.01 µM). The “prophylactic efficacy for Plasmodium vivax” value in the experiment with Plasmodium vivax is 98.9%.
On to `CC[C@H]1OC(=O)[C@H](C)[C@@H](O)[C@H](C)[C@@H](O[C@@H]2O[C@H](C)C[C@H](N(C)C)[C@H]2OCCCNc2ccnc3cc(Cl)ccc23)[C@](C)(O)C[C@@H](C)CN(C)[C@H](C)[C@@H](O)[C@]1(C)O` [Example 5, 2′-O-{3-[(7-Chloro-4-quinolinyl)amino]propyl}-3-O-decladinosyl-9-deoxo-9a-methyl-9a-aza-9a-homoerythromycin A], for which the concentration for half-maximal inhibition (IC50) in experiment [1] and in experiment [2] was at most 0.1 µg/mL throughout.
In the case of midecamycinin, in the experiment on Plasmodium cynomolgi, the “efficacy in monkey model” value was “no efficacy”. The “activity in mouse model” value (in experiment [3]; in the experiment with Plasmodium berghei) was “active” throughout.
In the case of `CC[C@H]1OC(=O)[C@H](C)[C@@H](O[C@H]2C[C@@](C)(OC)[C@@H](O)[C@H](C)O2)[C@H](C)[C@@H](O[C@@H]2O[C@H](C)C[C@H](N(C)C)[C@H]2OCCCNC(=O)CCCNc2ccnc3ccccc23)[C@](C)(O)C[C@@H](C)CN(C)[C@H](C)[C@@H](O)[C@]1(C)O` [Example 12, 2′-O-[3-({4-[(4-quinolinyl)amino]butanoyl}amino)propyl]-9-deoxo-9a-methyl-9a-aza-9a-homoerythromycin A], the IC50 in experiment [1] fell in the range of 0.2 to 1 µg/mL (≈ 0.196 to 0.982 µM); in experiment [2], 0.1 to 0.2 µg/mL (≈ 0.0982 to 0.196 µM).
For `CC[C@H]1OC(=O)[C@H](C)[C@@H](O[C@H]2C[C@@](C)(OC)[C@@H](O)[C@H](C)O2)[C@H](C)[C@@H](O[C@@H]2O[C@H](C)C[C@H](N(C)C)[C@H]2OCCC(=O)NCCNc2ccnc3cc(Cl)ccc23)[C@](C)(O)C[C@@H](C)CN(C)[C@H](C)[C@@H](O)[C@]1(C)O` [Example 11, 2′-O-[3-({2-[(7-chloro-4-quinolinyl)amino]ethyl}amino)-3-oxopropyl]9-deoxo-9a-methyl—9a-aza-9a-homoerythromycin A], the half-maximal inhibitory concentration (IC50) in experiment [1] and in experiment [2] was at most 0.1 µg/mL throughout.
Regarding `CC[C@H]1OC(=O)[C@H](C)[C@@H](O[C@H]2C[C@@](C)(OC)[C@@H](O)[C@H](C)O2)[C@H](C)[C@@H](O[C@@H]2O[C@H](C)C[C@H](N(C)C)[C@H]2OCCCNC(=O)CNc2ccnc3cc(Cl)ccc23)[C@](C)(O)C[C@@H](C)CN(C)[C@H](C)[C@@H](O)[C@]1(C)O` [Example 7, 2′-O-[3-({2-[(7-chloro-4-quinolinyl)amino]ethanoyl}amino)propyl]-9-deoxo-9a-methyl-9a-aza-9a-homoerythromycin A], the IC50 in experiment [1] and in experiment [2] was at most 0.1 µg/mL throughout.
On to `CC[C@H]1OC(=O)[C@H](C)[C@@H](O[C@H]2C[C@@](C)(OC)[C@@H](O)[C@H](C)O2)[C@H](C)[C@@H](O[C@@H]2O[C@H](C)C[C@H](N(C)C)[C@H]2OCCCNC(=O)CCCNc2ccnc3cc(Cl)ccc23)[C@](C)(O)C[C@@H](C)CN(C)[C@H](C)[C@@H](O)[C@]1(C)O` [Example 1, 2′-O-[3-({4-[(7-chloro-4-quinolinyl)amino]butanoyl}amino)propyl]-9-deoxo-9a-methyl-9a-aza-9a-homoerythromycin A], for which the concentration for half-maximal inhibition (IC50) in experiment [1] and in experiment [2] was at most 0.1 µg/mL in each case.
Take `CC[C@H]1OC(=O)[C@H](C)[C@@H](O)[C@H](C)[C@@H](O[C@@H]2O[C@H](C)C[C@H](N(C)C)[C@H]2OCCCNC(=O)CNc2ccnc3cc(Cl)ccc23)[C@](C)(O)C[C@@H](C)CN(C)[C@H](C)[C@@H](O)[C@]1(C)O` [Example 8, 2′-O-[3-({2-[(7-chloro-4-quinolinyl)amino]ethanoyl}amino)propyl]-3-O-decladinosyl-9-deoxo-9a-methyl-9a-aza-9a-homoerythromycin A]: the IC50 in experiment [1] was at most 0.1 µg/mL; in experiment [2], 0.1 to 0.2 µg/mL (≈ 0.115 to 0.231 µM).
On the same counts, the results for `CC[C@H]1OC(=O)[C@H](C)[C@@H](O[C@H]2C[C@@](C)(OC)[C@@H](O)[C@H](C)O2)[C@H](C)[C@@H](O[C@@H]2O[C@H](C)C[C@H](N(C)C)[C@H]2OCCCNc2ccnc3ccccc23)[C@](C)(O)C[C@@H](C)CN(C)[C@H](C)[C@@H](O)[C@]1(C)O` [Example 6, 2′-O-{3-[(4-quinolinyl)amino]propyl}-9-deoxo-9a-methyl-9a-aza-9a-homoerythromycin A] are at most 0.1 µg/mL and at most 0.1 µg/mL.
The corresponding values for `CC[C@H]1OC(=O)[C@H](C)[C@@H](O[C@H]2C[C@@](C)(OC)[C@@H](O)[C@H](C)O2)[C@H](C)[C@@H](O[C@@H]2O[C@H](C)C[C@H](N(C)C)[C@H]2OCCCNC(=O)CNc2ccnc3ccccc23)[C@](C)(O)C[C@@H](C)CN(C)[C@H](C)[C@@H](O)[C@]1(C)O` [Example 9, 2′-O-[3-({2-[(4-quinolinyl)amino]ethanoyl}amino)propyl]-9-deoxo-9a-methyl-9a-aza-9a-homoerythromycin A] are 0.1 to 0.2 µg/mL (≈ 0.101 to 0.202 µM) and at most 0.1 µg/mL.
